ChEMBL document CHEMBL6182863, “Discovery of novel rigid STING PROTAC degraders as potential therapeutics for acute kidney injury” (Eur J Med Chem, 2025)
Active and inactive are the calls of the source. No cut-off for these calls is given here.

Assays:
[1] = molecular target: T1, Protein cereblon/Stimulator of interferon genes protein (Homo sapiens, UniProt Q96SW2+Q86WV6); assay: PROTAC activity at CRBN/STING in human THP-1 cells assessed as induction of STING degradation at 5 uM measured after 24 hrs by Western blotting analysis relative to control; format: cell-based
[2] = molecular target: T1, Protein cereblon/Stimulator of interferon genes protein; assay: PROTAC activity at CRBN/STING in human THP-1 cells assessed as induction of STING degradation by Western blotting analysis; format: cell-based; conditions: time 1-48 hrs
[3] = molecular target: T1, Protein cereblon/Stimulator of interferon genes protein; assay: PROTAC activity at CRBN/STING in human THP-1 cells assessed as induction of STING degradation at 5 uM incubated for 24 hrs in presence of MG132 by Western blotting analysis; format: cell-based
HK-2 [4] = assay: Inhibition of STING downstream signal pathway in cisplatin stimulated human HK-2 cells assessed as reduction in STING protein level at 1.25 to 5 uM pretreated with cisplatin followed by compound addition by Western blotting analysis; format: cell-based; conditions: dose 1.25-5 µM
HK-2 [5] = assay: Inhibition of STING downstream signal pathway in cisplatin stimulated human HK-2 cells assessed as reduction in p-IRF3 level by […] analysis; format: cell-based; conditions: dose 1.25-5 µM
[6] = Acute toxicity in C57BL/6J mouse assessed as change in body weight at 30 mg/kg; format: organism-based; conditions: in vivo
[7] = Acute toxicity in C57BL/6J mouse assessed as change in body weight at 61 mg/kg; format: organism-based; conditions: in vivo
[8] = Acute toxicity in C57BL/6J mouse assessed as change in body weight at 88 mg/kg; format: organism-based; conditions: in vivo
[9] = Acute toxicity in C57BL/6J mouse assessed as change in body weight at 125 mg/kg; format: organism-based; conditions: in vivo
[10] = Acute toxicity in C57BL/6J mouse assessed as mortality at 30 to 179 mg/kg; format: organism-based; conditions: in vivo, dose 30-179 mg/kg
[11] = Acute toxicity in C57BL/6J mouse assessed as survival at 30 to 179 mg/kg; format: organism-based; conditions: in vivo, dose 30-179 mg/kg
HK-2 [12] = assay: Inhibition of ROS formation in human HK-2 cells measured after 24 hrs in presence of cisplatin by DAPI staining based fluorescence microscopic analysis; format: functional, cell-based; conditions: dose 1.25-5 µM
[13] = Metabolic stability in human liver microsomes assessed as intrinsic clearance per gram of protein; format: ADME, Microsome
[14] = AUC (0 to t) in male Sprague-Dawley rat at 2 mg/kg, iv measured after 12 hrs by LC-MS/MS analysis; format: ADME, organism-based; conditions: in vivo
[15] = MRT (0 to t) in male Sprague-Dawley rat at 2 mg/kg, iv measured after 12 hrs by LC-MS/MS analysis; format: ADME, organism-based; conditions: in vivo
[16] = MRT (0 to infinity) in male Sprague-Dawley rat at 2 mg/kg, iv measured after 12 hrs by LC-MS/MS analysis; format: ADME, organism-based; conditions: in vivo
[17] = Half life in male Sprague-Dawley rat at 2 mg/kg, iv measured after 12 hrs by LC-MS/MS analysis; format: ADME, organism-based; conditions: in vivo
[18] = Tmax in male Sprague-Dawley rat at 2 mg/kg, iv measured after 12 hrs by LC-MS/MS analysis; format: ADME, organism-based; conditions: in vivo
[19] = Clearance in male Sprague-Dawley rat at 2 mg/kg, iv measured after 12 hrs by LC-MS/MS analysis; format: ADME, organism-based; conditions: in vivo
[20] = Toxicity in cisplatin-induced acute kidney injury C57BL/6J mouse model assessed as morphological abnormality in spleen at 25 to 50 mg/kg, ip by H and E staining based analysis; format: organism-based; conditions: in vivo, dose 25-50 mg/kg
Mus musculus [21] = assay: Renoprotective activity against cisplatin-induced C57BL/6J mouse acute kidney injury model assessed as recovery of body weight administered intraperitoneally and measured after 72 hrs; format: functional, organism-based; conditions: dose 25-50 mg/kg, route ip
Mus musculus [22] = assay: Renoprotective activity against cisplatin-induced C57BL/6J mouse acute kidney injury model assessed as decrease in fecal viscosity at 25 to 50 mg/kg, ip measured after 72 hrs; format: functional, organism-based; conditions: dose 25-50 mg/kg
[23] = molecular target: Protein cereblon/Stimulator of interferon genes protein (Mus musculus) (UniProt Q3TBT3+Q8C7D2); assay: In vivo inhibition of STING/TBK1/NF-kappaB signaling in C57BL/6J mouse assessed as decrease in P-P65 protein level in kidney at 25 to 50 mg/kg, ip measured after 72 hrs by Western blotting analysis; format: functional, organism-based; conditions: dose 25-50 mg/kg
THP-1 [24] = assay: PROTAC activity at CRBN/AMPK in human THP-1 cells assessed as induction of AMPK degradation at 1.25 to 20 uM measured after 24 hrs by Western blotting analysis; format: cell-based; conditions: dose 1.25-20 µM
THP-1 [25] = assay: PROTAC activity at CRBN/ERK in human THP-1 cells assessed as induction of ERK degradation at 1.25 to 20 uM measured after 24 hrs by Western blotting analysis; format: cell-based; conditions: dose 1.25-20 µM

T1 sequence (Q86WV6 whole entry, looked up): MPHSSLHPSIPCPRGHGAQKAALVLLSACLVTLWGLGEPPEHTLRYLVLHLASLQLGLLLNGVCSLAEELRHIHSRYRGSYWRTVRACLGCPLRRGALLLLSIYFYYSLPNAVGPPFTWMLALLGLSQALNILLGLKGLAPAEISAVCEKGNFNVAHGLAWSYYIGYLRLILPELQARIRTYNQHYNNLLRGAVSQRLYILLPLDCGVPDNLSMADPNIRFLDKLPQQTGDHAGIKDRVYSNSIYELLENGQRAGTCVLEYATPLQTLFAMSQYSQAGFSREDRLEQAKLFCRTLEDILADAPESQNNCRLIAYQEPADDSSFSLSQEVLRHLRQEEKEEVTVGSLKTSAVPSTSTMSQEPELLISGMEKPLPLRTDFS
T1 sequence (Q96SW2 whole entry, looked up): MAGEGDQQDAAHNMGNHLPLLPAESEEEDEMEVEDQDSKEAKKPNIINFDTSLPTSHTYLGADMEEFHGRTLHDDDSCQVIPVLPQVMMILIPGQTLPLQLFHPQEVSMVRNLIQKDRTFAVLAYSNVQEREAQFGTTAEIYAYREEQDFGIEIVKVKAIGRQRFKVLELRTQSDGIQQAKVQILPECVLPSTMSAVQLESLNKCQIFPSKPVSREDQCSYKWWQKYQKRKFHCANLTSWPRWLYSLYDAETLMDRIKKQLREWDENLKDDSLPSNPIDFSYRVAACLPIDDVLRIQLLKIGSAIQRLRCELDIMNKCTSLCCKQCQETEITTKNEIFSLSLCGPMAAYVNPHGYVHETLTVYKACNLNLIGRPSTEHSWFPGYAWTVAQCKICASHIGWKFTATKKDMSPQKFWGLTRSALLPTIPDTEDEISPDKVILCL
Protein cereblon/Stimulator of interferon genes protein (Mus musculus), sequence (Q3TBT3 whole entry, looked up): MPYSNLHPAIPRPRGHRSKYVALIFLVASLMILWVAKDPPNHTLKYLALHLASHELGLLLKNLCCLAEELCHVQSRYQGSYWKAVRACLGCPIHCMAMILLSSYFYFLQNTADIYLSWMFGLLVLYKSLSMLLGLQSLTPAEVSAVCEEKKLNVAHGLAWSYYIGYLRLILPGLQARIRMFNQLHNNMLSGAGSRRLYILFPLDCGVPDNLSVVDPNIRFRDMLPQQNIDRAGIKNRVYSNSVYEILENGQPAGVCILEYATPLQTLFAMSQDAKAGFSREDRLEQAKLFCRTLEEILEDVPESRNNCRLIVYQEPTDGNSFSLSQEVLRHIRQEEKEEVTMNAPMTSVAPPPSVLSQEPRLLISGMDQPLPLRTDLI
Protein cereblon/Stimulator of interferon genes protein (Mus musculus), sequence (Q8C7D2 whole entry, looked up): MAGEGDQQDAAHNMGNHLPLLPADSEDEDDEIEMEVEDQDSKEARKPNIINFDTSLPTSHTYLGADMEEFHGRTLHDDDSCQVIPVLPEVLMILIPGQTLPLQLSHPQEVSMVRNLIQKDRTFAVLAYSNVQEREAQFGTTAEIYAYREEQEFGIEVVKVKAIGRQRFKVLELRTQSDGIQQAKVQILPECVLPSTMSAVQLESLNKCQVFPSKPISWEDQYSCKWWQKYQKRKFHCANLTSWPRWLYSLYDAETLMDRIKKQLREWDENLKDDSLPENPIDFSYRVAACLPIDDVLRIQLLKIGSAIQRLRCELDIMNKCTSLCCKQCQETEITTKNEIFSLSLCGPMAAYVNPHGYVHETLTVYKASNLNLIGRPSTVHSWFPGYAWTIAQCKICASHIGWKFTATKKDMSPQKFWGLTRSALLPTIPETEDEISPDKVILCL

In the case of `O=C(/C=C/C(=O)N1CCN(CC2CCN(c3cccc4c3C(=O)N(C3CCC(=O)NC3=O)C4=O)C2)CC1)Nc1ccc(NC(=O)c2ccc([N+](=O)[O-])o2)cc1` (stereo not given), the Activity [1] is reported as 90.6%, the Activity [2] is reported as “Time-dependent-effect” and the Activity [3] is reported as “inactive”. For the same compound, the inhibition (HK-2 [4]) was “Active”, the inhibition (HK-2 [5]) was “Dose-dependent-effect” and the Activity [6] was 25.1 g. The Activity [7] was 25.3 g, the Activity [8] was 24.9 g and the Activity [9] was 23.4 g. For the same compound, the Activity [10] was “Non-toxic”, the survival [11] was 100% and the inhibition (HK-2 [12]) was “Dose-dependent-effect”. It also gave a CLint [13] of 104 mL/min/g, an AUC(0-t) at 12 h [14] of 729 ng·h/mL and an MRT last at 12 h [15] of 12 min. For the same compound, the MRT inf [16] was 12.6 min, the half-life [17] was 51.6 min and the Tmax [18] was 4.8 min. For the same compound, the CL [19] was 53.3 mL/min/kg, the Activity [20] was “Non-toxic” and the Activity (Mus musculus [21]) was “Dose-dependent-effect”. The Activity (Mus musculus [22]) was “Active”, the inhibition [23] was “Active” and the Activity (THP-1 [24]) was “inactive”. For the same compound, the Activity (THP-1 [25]) was “inactive”.
